Laboratory results from ChEMBL document CHEMBL4184320, “Optimization of Selective Mitogen-Activated Protein Kinase Interacting Kinases 1 and 2 Inhibitors for the Treatment of Blast Crisis Leukemia” (J Med Chem, 2018).
Values after ≈ are worked out from the molar mass of the structure shown.

Columns and labels:
[1] = target: MAP kinase-interacting serine/threonine-protein kinase 2 (Homo sapiens, UniProt Q9HBH9)
Description: Inhibition of GST-tagged MNK2 (72 to 385 residues) (unknown origin) expressed in Escherichia coli BL21(DE3) using JH3 peptide as substrate preincubated for 10 mins followed by substrate and ATP addition measured after 60 mins

[2] = target: MAP kinase-interacting serine/threonine-protein kinase 1 (Homo sapiens, UniProt Q9BUB5)
Description: Inhibition of GST-tagged MNK1 (37 to 341 residues) (unknown origin) expressed in Escherichia coli BL21(DE3) using JH3 peptide as substrate preincubated for 10 mins followed by substrate and ATP addition measured after 60 mins

[3] = Thermodynamic solubility of the compound at pH 4 to 7.4 pION buffer after 18 hrs by UV spectrophotometric analysis; type: physicochemical; details: read-out: Therm_solubility
[4] = Octanol-phosphate buffer partition coefficient, logD of compound at pH 7.4 by HPLC-UV analysis; type: physicochemical
[5] = Permeability of the compound by PAMPA; type: ADME; details: read-out: permeability
[6] = target: MAP kinase-interacting serine/threonine-protein kinase 1/2 (Homo sapiens, UniProt Q9HBH9+Q9BUB5); experiment: Inhibition of MNK1/2 in human HeLa cells assessed as decrease in eIF4E phosphorylation at Ser209 after 2 hrs by AlphaScreen assay; type: cell-based
[7] = target: Cytochrome P450 2D6 (Homo sapiens, UniProt P10635); experiment: Inhibition of CYP2D6 in human liver microsomes using dextromethorphan as substrate preincubated for 5 mins followed by NADPH addition by LC-MS/MS analysis; type: ADME
[8] = target: Cytochrome P450 3A4 (Homo sapiens, UniProt P08684)
Description: Inhibition of CYP3A4 in human liver microsomes using midazolam as substrate preincubated for 5 mins followed by NADPH addition measured after 5 mins by LC-MS/MS analysis

[9] = in vitro; details: mouse, liver microsomes
Description: Half life in mouse liver microsomes at 1 uM in presence of NADPH by LC-MS/MS analysis

[10] = in vitro; details: human, liver microsomes
Description: Half life in human liver microsomes at 1 uM in presence of NADPH by LC-MS/MS analysis

[11] = Protein binding in mouse plasma at […] after 5 hrs by LC-MS/MS analysis; type: ADME, cell-free; details: read-out: PPB (converted)
[12] = Protein binding in human plasma at […] after 5 hrs by LC-MS/MS analysis; type: ADME, cell-free; details: read-out: PPB (converted)
[13] = Efflux ratio of apparent permeability in human Caco2 cells by LC-MS/MS analysis; type: ADME, cell-based; details: Caco-2
[14] = Apparent permeability of the compound across apical side to basolateral side in human Caco2 cells by LC-MS/MS analysis; type: ADME, cell-based; details: Caco-2
[15] = Cmax in CD-1 mouse at 5 mg/kg, po administered via gavage as single dose by LC-MS/MS analysis; type: ADME, organism-based; design: dose 5 mg/kg, route oral; details: in vivo
[16] = AUClast in CD-1 mouse at 5 mg/kg, po administered via gavage as single dose by LC-MS/MS analysis; type: ADME, organism-based; design: dose 5 mg/kg, time 0 - last, route oral; details: in vivo
[17] = target: Dual specificity mitogen-activated protein kinase kinase 2 (Homo sapiens) (UniProt P36507); experiment: Inhibition of human MEK2 (M1 to V400 residues) expressed in mammalian expression system at 1 uM by KINOMEscan assay relative to control
[18] = target: Proto-oncogene tyrosine-protein kinase receptor Ret (Homo sapiens) (UniProt P07949); experiment: Inhibition of human RET (E713 to D1014 residues) expressed in bacterial expression system at 1 uM by KINOMEscan assay relative to control
[19] = target: Dual specificity mitogen-activated protein kinase kinase 1 (Homo sapiens) (UniProt Q02750); experiment: Inhibition of human MEK1 (M1 to V393 residues) expressed in mammalian expression system at 1 uM by KINOMEscan assay relative to control
[20] = target: Tyrosine-protein kinase ABL1 (Homo sapiens) (UniProt P00519); experiment: Inhibition of human ABL1 (S229 to K512 residues) expressed in mammalian expression system at 1 uM by KINOMEscan assay relative to control
[21] = test system: Tyrosine-protein kinase ABL1 (Homo sapiens), P00519 [E255K]; experiment: Inhibition of human ABL1 E255K mutant (S229 to K512 residues) expressed in mammalian expression system at 1 uM by KINOMEscan assay relative to control
[22] = target: Dual specificity mitogen-activated protein kinase kinase; MEK1/2 (Homo sapiens) (UniProt P36507+Q02750); experiment: Inhibition of MEK (unknown origin) at 1 uM by KINOMEscan assay relative to control; type: protein assay
Chain of Dual specificity mitogen-activated protein kinase kinase; MEK1/2 (Homo sapiens) (P36507 whole entry, looked up): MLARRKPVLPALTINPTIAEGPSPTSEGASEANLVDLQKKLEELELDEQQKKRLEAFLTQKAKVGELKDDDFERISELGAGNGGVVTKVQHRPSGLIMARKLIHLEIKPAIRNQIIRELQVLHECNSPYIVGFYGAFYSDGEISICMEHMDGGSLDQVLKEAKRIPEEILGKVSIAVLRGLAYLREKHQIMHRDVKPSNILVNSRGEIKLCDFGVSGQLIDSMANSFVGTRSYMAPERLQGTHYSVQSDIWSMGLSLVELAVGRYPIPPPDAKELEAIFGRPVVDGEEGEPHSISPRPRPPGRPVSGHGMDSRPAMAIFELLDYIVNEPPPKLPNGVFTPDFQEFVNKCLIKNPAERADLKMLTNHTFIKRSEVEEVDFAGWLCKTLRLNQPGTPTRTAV
Chain of Dual specificity mitogen-activated protein kinase kinase; MEK1/2 (Homo sapiens) (Q02750 whole entry, looked up): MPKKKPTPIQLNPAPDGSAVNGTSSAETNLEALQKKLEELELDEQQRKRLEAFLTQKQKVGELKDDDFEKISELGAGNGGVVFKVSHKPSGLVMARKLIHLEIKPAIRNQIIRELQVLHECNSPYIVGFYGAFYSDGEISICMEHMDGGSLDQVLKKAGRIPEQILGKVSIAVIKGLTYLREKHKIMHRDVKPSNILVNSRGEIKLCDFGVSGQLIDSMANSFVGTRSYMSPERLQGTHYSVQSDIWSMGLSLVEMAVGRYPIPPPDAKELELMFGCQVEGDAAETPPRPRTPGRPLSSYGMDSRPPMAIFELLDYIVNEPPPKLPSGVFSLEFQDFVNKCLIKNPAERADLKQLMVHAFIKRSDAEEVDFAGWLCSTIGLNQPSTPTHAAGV

Chain of MAP kinase-interacting serine/threonine-protein kinase 2 (Q9HBH9 whole entry): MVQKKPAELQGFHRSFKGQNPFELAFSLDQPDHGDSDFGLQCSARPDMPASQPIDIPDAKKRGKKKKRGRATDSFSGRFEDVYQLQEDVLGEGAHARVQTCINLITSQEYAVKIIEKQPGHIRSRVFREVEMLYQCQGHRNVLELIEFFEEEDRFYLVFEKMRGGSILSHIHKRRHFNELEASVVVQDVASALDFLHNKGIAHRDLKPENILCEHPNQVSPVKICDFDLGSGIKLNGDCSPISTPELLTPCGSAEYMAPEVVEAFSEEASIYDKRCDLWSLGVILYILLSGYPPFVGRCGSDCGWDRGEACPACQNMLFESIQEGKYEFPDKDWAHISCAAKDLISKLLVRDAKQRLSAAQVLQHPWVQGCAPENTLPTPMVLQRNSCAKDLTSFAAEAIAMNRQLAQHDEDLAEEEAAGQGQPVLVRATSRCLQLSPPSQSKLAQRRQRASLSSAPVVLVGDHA
Chain of Cytochrome P450 3A4 (P08684 whole entry): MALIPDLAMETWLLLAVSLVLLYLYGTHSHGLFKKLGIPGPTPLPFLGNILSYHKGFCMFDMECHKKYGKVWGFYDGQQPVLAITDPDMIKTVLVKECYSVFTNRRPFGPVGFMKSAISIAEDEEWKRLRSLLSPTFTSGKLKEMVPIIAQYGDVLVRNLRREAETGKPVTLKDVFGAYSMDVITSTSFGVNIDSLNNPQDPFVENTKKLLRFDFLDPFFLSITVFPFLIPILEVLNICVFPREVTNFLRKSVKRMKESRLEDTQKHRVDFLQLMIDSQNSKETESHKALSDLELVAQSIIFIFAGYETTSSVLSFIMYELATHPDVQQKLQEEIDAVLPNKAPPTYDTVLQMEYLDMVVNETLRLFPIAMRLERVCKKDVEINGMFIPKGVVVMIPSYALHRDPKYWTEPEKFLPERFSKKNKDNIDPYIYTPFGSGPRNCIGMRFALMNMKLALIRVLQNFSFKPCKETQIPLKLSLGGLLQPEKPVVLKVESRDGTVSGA
Chain of MAP kinase-interacting serine/threonine-protein kinase 1 (Q9BUB5 whole entry): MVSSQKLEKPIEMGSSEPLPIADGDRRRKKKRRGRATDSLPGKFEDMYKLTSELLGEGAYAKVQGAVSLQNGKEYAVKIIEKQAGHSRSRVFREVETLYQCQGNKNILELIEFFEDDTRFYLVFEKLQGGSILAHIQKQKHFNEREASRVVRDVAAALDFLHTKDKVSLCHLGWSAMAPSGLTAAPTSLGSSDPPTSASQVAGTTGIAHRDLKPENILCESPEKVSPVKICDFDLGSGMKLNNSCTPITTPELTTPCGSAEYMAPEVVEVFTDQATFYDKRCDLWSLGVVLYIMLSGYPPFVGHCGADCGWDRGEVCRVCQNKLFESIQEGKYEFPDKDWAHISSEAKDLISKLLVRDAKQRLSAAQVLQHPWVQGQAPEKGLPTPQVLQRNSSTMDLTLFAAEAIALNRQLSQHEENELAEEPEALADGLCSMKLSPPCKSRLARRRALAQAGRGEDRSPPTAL
Chain of Cytochrome P450 2D6 (P10635 whole entry): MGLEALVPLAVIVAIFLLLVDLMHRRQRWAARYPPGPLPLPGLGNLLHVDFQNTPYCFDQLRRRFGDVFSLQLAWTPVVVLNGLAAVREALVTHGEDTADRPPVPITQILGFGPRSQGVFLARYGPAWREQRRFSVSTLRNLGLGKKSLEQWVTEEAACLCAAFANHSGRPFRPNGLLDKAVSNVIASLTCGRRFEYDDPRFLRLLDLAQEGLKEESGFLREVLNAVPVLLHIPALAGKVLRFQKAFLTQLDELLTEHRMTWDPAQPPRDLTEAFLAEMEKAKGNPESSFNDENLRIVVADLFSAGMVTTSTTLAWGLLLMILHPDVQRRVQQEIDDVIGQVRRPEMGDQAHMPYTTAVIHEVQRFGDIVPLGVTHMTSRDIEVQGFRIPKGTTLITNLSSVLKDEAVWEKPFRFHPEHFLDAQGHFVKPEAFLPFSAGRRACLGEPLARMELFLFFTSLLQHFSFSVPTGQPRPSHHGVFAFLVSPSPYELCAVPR
Chain of Tyrosine-protein kinase ABL1 (Homo sapiens), P00519 [E255K] (P00519 whole entry E255K, the tested form may be a part): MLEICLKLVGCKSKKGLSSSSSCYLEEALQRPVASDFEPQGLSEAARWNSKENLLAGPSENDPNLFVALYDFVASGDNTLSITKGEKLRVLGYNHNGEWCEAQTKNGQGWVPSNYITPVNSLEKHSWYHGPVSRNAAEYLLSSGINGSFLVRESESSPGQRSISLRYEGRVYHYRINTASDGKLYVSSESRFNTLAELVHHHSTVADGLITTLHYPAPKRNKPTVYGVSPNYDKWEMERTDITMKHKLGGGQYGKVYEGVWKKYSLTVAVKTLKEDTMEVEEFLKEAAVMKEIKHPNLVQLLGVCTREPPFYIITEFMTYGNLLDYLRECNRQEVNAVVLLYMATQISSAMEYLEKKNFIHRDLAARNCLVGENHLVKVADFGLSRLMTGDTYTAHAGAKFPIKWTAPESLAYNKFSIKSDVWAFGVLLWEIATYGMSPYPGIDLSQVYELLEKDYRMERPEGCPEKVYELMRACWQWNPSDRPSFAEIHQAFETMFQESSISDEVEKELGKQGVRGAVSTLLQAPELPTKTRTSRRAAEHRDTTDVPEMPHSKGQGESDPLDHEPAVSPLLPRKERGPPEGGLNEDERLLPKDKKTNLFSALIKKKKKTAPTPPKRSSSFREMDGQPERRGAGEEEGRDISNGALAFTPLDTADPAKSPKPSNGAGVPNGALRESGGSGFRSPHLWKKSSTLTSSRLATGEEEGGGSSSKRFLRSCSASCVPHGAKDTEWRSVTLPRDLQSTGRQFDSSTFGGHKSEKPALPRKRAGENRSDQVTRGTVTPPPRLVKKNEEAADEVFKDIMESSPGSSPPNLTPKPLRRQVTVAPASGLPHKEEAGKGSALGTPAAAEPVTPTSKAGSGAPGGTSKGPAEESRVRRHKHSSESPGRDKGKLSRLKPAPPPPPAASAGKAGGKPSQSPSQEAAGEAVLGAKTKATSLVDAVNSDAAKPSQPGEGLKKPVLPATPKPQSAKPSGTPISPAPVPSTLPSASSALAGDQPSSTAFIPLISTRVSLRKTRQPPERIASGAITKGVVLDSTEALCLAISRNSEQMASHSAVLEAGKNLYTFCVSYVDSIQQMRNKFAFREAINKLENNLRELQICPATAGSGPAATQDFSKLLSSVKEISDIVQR
Chain of Proto-oncogene tyrosine-protein kinase receptor Ret (Homo sapiens) (P07949 whole entry, the tested form may be a part): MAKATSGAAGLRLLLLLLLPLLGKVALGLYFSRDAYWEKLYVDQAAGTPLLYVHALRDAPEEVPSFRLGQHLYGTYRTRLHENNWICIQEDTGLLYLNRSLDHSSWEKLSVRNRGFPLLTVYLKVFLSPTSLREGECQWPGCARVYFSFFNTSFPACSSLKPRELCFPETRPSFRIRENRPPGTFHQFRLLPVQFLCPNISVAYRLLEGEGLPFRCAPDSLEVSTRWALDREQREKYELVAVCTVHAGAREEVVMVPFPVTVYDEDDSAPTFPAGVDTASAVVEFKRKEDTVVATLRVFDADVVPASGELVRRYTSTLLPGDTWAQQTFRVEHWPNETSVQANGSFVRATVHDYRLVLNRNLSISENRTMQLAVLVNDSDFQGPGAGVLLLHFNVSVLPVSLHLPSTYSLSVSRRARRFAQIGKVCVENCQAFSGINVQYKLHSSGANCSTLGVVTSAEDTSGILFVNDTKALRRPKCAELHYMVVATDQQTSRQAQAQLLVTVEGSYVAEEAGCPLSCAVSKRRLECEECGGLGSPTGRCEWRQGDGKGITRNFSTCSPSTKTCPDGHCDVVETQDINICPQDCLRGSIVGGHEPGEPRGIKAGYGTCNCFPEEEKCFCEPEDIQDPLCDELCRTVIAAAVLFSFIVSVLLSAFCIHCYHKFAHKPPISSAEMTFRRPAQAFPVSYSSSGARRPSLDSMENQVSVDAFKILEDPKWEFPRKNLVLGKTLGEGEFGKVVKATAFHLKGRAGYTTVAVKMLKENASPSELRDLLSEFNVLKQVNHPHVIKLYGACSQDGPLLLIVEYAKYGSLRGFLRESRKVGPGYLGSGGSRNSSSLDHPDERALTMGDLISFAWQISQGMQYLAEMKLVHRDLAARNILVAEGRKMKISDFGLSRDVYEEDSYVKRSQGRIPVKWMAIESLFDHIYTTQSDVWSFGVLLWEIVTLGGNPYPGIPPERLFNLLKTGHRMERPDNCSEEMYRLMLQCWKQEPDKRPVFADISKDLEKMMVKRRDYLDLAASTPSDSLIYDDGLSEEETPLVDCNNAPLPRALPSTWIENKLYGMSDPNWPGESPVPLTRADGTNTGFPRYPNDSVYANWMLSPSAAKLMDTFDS

| Structure (SMILES) | IC50 [1] | IC50 [2] | solubility thermodynamic at 18 h [3] | logD [4] | Papp [5] | IC50 [6] | further results |
| --- | --- | --- | --- | --- | --- | --- | --- |
| CN1CCN(C(=O)c2ccc(-c3cn4c(-c5ccc(Cl)cc5)cnc4cn3)cc2)CC1 | 217 nM | 331 nM | 118 µg/mL (≈ 273 µM) | 2.96 | 71.3 ×10⁻⁶ cm/s | 759 nM | – |
| NC(=O)c1ccc(-c2cn3c(-c4ccc(O)cc4)cnc3cn2)cc1 | 193 nM | 310 nM | – | 2.03 | 22.7 ×10⁻⁶ cm/s | 1080 nM | IC50 [7]: > 20000 nM; IC50 [8]: > 20000 nM; half-life at 1 µM [9]: 46 min; half-life at 1 µM [10]: 60 min |
| CN1CCN(C(=O)c2ccc(-c3cn4c(-c5ccccc5)cnc4cn3)cc2)CC1 | 1430 nM | 2680 nM | – | – | – | 1920 nM | – |
| CN1CCN(C(=O)c2ccc(-c3cn4c(-c5cccc(O)c5)cnc4cn3)cc2)CC1 | 742 nM | 1300 nM | 116 µg/mL (≈ 281 µM) | 2.31 | 33.2 ×10⁻⁶ cm/s | 1330 nM | – |
| CN1CCN(C(=O)c2ccc(-c3cn4c(-c5ccc(C(=O)O)cc5)cnc4cn3)cc2)CC1 | 355 nM | 700 nM | > 22 µg/mL | -1.37 | 0.1 ×10⁻⁶ cm/s | > 2500 nM | – |
| N#Cc1ccc(-c2cnc3cnc(-c4ccc(C(=O)N5CCOCC5)cc4)cn23)cc1 | 454 nM | 570 nM | 11.1 µg/mL (≈ 27.1 µM) | 1.77 | 43.1 ×10⁻⁶ cm/s | 748 nM | IC50 [7]: > 20000 nM; IC50 [8]: > 20000 nM; half-life at 1 µM [9]: > 60 min; half-life at 1 µM [10]: > 60 min; efflux ratio [13]: 1.73; Papp A→B [14]: 17.9 ×10⁻⁶ cm/s |
| O=C(Nc1cn2c(-c3ccc(O)cc3)cnc2cn1)c1ccccc1 | 1080 nM | 3350 nM | – | – | – | – | – |
| CN1CCN(C(=O)c2ccc(-c3cn4c(-c5ccc(C(F)F)cc5)cnc4cn3)cc2)CC1 | 336 nM | 369 nM | 66.9 µg/mL (≈ 150 µM) | 2.55 | 76.2 ×10⁻⁶ cm/s | 1630 nM | – |
| Oc1ccc(-c2cnc3cnc(-c4ccccc4)cn23)cc1 | 415 nM | 528 nM | – | – | – | 819 nM | – |
| CN1CCN(C(=O)c2ccc(-c3cn4c(-c5ccccc5O)cnc4cn3)cc2)CC1 | 5170 nM | 9500 nM | – | – | – | – | – |
| CN1CCN(C(=O)c2ccc(-c3cn4c(-c5ccc(C(N)=O)cc5)cnc4cn3)cc2)CC1 | 187 nM | 294 nM | 126 µg/mL (≈ 286 µM) | 0.98 | 1.78 ×10⁻⁶ cm/s | > 2500 nM | – |
| CC(=O)Nc1cn2c(-c3ccc(O)cc3)cnc2cn1 | 515 nM | 789 nM | – | – | – | > 2500 nM | – |
| CN1CCN(C(=O)c2ccc(-c3cn4c(-c5ccc(C(F)(F)F)cc5)cnc4cn3)cc2)CC1 | 389 nM | 574 nM | 90.4 µg/mL (≈ 194 µM) | 2.95 | 87.4 ×10⁻⁶ cm/s | 1990 nM | – |
| Nc1ncnc2[nH]nc(Nc3ccc(F)cc3)c12 | – | – | – | – | – | – | inhibition [17]: > 99%; inhibition [18]: > 99%; inhibition [19]: > 99%; inhibition [20]: > 99%; inhibition [21]: > 99%; inhibition [22]: > 99% |
| Cc1ccc(-c2cnc3cnc(-c4ccc(C(=O)N5CCN(C)CC5)cc4)cn23)cc1 | 410 nM | 600 nM | – | – | – | 1210 nM | – |

Continued, in another order:

| IC50 [1] | IC50 [2] | solubility thermodynamic at 18 h [3] | logD [4] | Papp [5] | IC50 [6] | Structure (SMILES) | further results |
| --- | --- | --- | --- | --- | --- | --- | --- |
| 25 nM | 20 nM | 86 µg/mL (≈ 204 µM) | 2.82 | 25 ×10⁻⁶ cm/s | 326 nM | CN1CCN(C(=O)c2ccc(-c3ccc4ncc(-c5ccc(C#N)cc5)n4n3)cc2)CC1 | IC50 [7]: > 20000 nM; IC50 [8]: > 20000 nM; fraction unbound at 5 h [11]: 0.041; fraction unbound at 5 h [12]: 0.001; half-life at 1 µM [9]: 23 min; half-life at 1 µM [10]: 17 min; efflux ratio [13]: 4.84; Papp A→B [14]: 14.6 ×10⁻⁶ cm/s |
| 72 nM | 84 nM | 137 µg/mL (≈ 325 µM) | 2.48 | 81.9 ×10⁻⁶ cm/s | 229 nM | CN1CCN(C(=O)c2ccc(-c3ccc4ncc(-c5ccc(C#N)cc5)n4c3)cc2)CC1 | IC50 [7]: > 20000 nM; IC50 [8]: 3900 nM; fraction unbound at 5 h [11]: 0.0967; fraction unbound at 5 h [12]: 0.003; half-life at 1 µM [9]: 11 min; half-life at 1 µM [10]: 20 min; efflux ratio [13]: 4.84; Papp A→B [14]: 5.43 ×10⁻⁶ cm/s |
| 160 nM | 224 nM | 144 µg/mL (≈ 326 µM) | 1.68 | 2.82 ×10⁻⁶ cm/s | > 2500 nM | CC(=O)N1CCN(C(=O)c2ccc(-c3cn4c(-c5ccc(O)cc5)cnc4cn3)cc2)CC1 | – |
| 11 nM | 9 nM | 148 µg/mL (≈ 328 µM) | 2.19 | 75.3 ×10⁻⁶ cm/s | 431 nM | CN(C)C1CCN(C(=O)c2ccc(-c3ccc4ncc(-c5ccc(C#N)cc5)n4n3)cc2)CC1 | Cmax [15]: 69 ng/mL; AUC(0-t) [16]: 347 ng·h/mL; half-life at 1 µM [9]: > 60 min; half-life at 1 µM [10]: 47 min; efflux ratio [13]: 13.3; Papp A→B [14]: 3 ×10⁻⁶ cm/s |
| 143 nM | 238 nM | > 45 µg/mL | 0.73 | 64.7 ×10⁻⁶ cm/s | 640 nM | CN(C)C1CCN(C(=O)c2ccc(-c3cn4c(-c5ccc(C#N)cc5)cnc4cn3)cc2)CC1 | IC50 [7]: > 20000 nM; IC50 [8]: > 20000 nM; half-life at 1 µM [9]: > 60 min; half-life at 1 µM [10]: > 60 min; efflux ratio [13]: 7.57; Papp A→B [14]: 1.14 ×10⁻⁶ cm/s |
| 113 nM | 125 nM | 11.5 µg/mL (≈ 28.7 µM) | 2.21 | 50.2 ×10⁻⁶ cm/s | 130 nM | O=C(c1ccc(-c2cn3c(-c4ccc(O)cc4)cnc3cn2)cc1)N1CCOCC1 | – |
| 26 nM | 16 nM | 115 µg/mL (≈ 282 µM) | 2 | 45.8 ×10⁻⁶ cm/s | 220 nM | N#Cc1ccc(-c2cnc3ccc(-c4ccc(C(=O)N5CCNCC5)cc4)nn23)cc1 | IC50 [8]: 5600 nM; half-life at 1 µM [9]: 42 min; half-life at 1 µM [10]: > 60 min; efflux ratio [13]: 29.9; Papp A→B [14]: 1.13 ×10⁻⁶ cm/s |
| 140 nM | 284 nM | 114 µg/mL (≈ 276 µM) | 2.25 | 34.7 ×10⁻⁶ cm/s | 189 nM | CN1CCN(C(=O)c2ccc(-c3cn4c(-c5ccc(O)cc5)cnc4cn3)cc2)CC1 | – |
| 31 nM | 60 nM | – | – | – | > 2500 nM | CN1CCN(C(=O)c2ccc(-c3cn4c(-c5ccc(C(=O)NO)cc5)cnc4cn3)cc2)CC1 | – |
